Reference: US8114862B2, “TGR5 modulators and methods of use thereof” (Intercept Pharmaceuticals, Inc., priority 2008, dated 2012)
Like-named read-outs stand apart in the source and are kept apart here. Marks after values point to notes of the source that are not given here.

What was measured:
in vitro [1] = settings: human, s9
[2] = Choleretic effect (bile flow) in bile fistula rat, id and iv infusion; format: in vivo; settings: for SV0: maximum bile secretion rate: 1 (μmol/min)/kg bw over 1 h
diet-induced obese mice = settings: 0.5% w/w in diet; cited from earlier work
FXR = target: T1, FXR (Homo sapiens, UniProt Q96RI1); experiment: Alphascreen coactivator recruitment assay; format: biochemical; set-up: 10 nM of purified GST-tagged FXR-LBD protein; settings: Table 8
T1 sequence (Q96RI1 262-486 limits assumed): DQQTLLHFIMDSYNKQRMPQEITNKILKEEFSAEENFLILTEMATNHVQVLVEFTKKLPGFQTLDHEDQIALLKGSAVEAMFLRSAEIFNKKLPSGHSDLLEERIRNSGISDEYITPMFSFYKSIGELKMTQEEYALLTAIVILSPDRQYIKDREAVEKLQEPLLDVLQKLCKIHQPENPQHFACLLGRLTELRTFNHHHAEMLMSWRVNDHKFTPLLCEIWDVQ

LXRα = target: T2, LXRα (Homo sapiens, UniProt Q13133); experiment: LXR coactivator recruitment (alphascreen); format: biochemical
T2 sequence (Q13133 1-447): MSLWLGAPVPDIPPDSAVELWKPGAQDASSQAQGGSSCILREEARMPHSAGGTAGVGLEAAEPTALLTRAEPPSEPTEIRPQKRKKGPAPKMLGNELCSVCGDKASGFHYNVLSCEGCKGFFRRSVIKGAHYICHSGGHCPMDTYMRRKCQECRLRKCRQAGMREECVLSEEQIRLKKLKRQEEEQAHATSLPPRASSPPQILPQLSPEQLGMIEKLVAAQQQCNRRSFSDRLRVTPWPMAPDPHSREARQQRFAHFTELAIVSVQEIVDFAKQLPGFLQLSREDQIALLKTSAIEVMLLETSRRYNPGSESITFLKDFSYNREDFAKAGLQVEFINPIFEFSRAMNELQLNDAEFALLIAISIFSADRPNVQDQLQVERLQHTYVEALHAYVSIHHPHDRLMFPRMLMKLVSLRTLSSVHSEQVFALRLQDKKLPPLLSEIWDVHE

PPARδ = target: T3, PPARδ (Homo sapiens, UniProt Q03181); experiment: PPARδ coactivator recruitment assay
T3 sequence (Q03181 211-439 limits assumed): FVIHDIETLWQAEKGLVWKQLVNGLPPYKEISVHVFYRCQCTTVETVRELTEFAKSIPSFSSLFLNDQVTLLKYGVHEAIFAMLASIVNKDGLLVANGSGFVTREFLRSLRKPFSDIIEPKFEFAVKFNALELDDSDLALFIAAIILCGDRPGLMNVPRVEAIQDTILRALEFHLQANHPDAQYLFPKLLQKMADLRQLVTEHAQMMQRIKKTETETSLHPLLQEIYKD

[3] = Biliary secretion and metabolism in bile fistula rat, id and iv infusion; settings: rat, bile, 1 μmol/kg/min
intestinal bacteria = experiment: Metabolic stability in human stool culture (7α-dehydroxylation); format: in vitro ADME
Procedure: Homogenized fresh human stools (500 mg) were transferred into sterile vials to which 5 mL of sterilized chopped meat-glucose medium (Scott Lab., Fiskville, R.I.) was added. BA was then added at a final concentration of 0.05 mM. […] The samples were centrifuged at 3500 rpm for 10 min; from the supernatant the BA were isolated by C-18 solid-phase extraction and analyzed by TLC and HPLC-ES-MS/MS.
Thin-layer chromatography (TLC), utilizing silica gel 0.25 mm thickness plates (Merck, Darmstat, Germany), was employed as the first screening test. The solvent system used for the separation of conjugated BA was composed of propionic acid/isoamyl acetate/water/N-propanol (3:4:1:2, v/v/v/v; solvent I), and that of the unconjugated BA was acetic acid/carbon tetrachloride/isopropyl ether/isoamyl acetate/water/N-propanol/benzene (1:4:6:8:2:2, v/v/v/v/v/v; solvent II).

HepG2 cells [4] = experiment: cells; settings: Homo sapiens, HepG2, 4 h, read-out: NECROSIS LDH release EC50
TGR5 = target: T4, TGR5 (Homo sapiens, UniProt Q8TDU6); experiment: TGR5 receptor in vitro assay (Table 1); format: cell-based
T4 sequence (Q8TDU6 1-330): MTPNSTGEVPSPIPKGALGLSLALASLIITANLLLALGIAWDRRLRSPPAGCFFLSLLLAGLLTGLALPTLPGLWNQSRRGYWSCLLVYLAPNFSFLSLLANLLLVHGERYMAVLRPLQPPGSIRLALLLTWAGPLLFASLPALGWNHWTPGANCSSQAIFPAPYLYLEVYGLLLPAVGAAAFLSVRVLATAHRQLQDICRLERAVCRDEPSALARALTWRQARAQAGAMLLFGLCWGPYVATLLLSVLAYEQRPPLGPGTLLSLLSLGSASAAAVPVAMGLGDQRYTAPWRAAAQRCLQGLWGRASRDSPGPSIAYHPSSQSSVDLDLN

[5] = Critical micellar concentration by surface tension; format: physicochemical; settings: […] NaCl water solution
Procedure: The critical micellar concentration (CMC) was determined by surface tension (ST) measurements using a maximum bubble-pressure method which give surface tension values […] by potential impurities like static methods are. The tensiometer was a […] Research Corp., Milwaukee, Wis.) equipped with two glass probes of 0.5 and 4.0 mm diameters connected to a source of nitrogen. […] The surface tension values were plotted against the logarithm of the bile salt concentration; the regression lines corresponding to the two parts of the curve (monomeric and micellar phases) were calculated using the method of least squares, and the intersection of the lines was taken as the CMC value. From the ST vs concentration curves the value of the surface tension at the CMC (equilibrium between monomers and multimers species) was also calculated giving information about the detergency power which is related to the size of the micelles with associate surface tension lowering capacity. The CMC was evaluated by surface tension measurements in non equilibrium conditions i.e. in conditions that impurities slightly affect the surface tension results (FIG. 10).

HepG2 cells [6] = experiment: cells; settings: Homo sapiens, HepG2, 4 h, read-out: APOPTOSIS Caspase-3 activation EC50
[7] = Octanol/water partition coefficient (shake-flask); format: physicochemical; settings: pH 8
CAR = target: T5, CAR (Homo sapiens, UniProt Q14994); experiment: CAR coactivator recruitment (Lanthascreen); format: biochemical; settings: for EC50: read-out: CAR Activation EC50
T5 construct: purchased Invitrogen
T5 sequence (Q14994 109-352 limits assumed): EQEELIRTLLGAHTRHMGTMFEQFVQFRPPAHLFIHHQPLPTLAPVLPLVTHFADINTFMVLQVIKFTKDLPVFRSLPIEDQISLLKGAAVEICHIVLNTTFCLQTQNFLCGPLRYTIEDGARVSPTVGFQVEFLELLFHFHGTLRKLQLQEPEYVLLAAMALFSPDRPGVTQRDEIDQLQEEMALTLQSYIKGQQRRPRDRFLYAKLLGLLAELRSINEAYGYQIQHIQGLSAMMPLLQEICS
Procedure: CAR: Coactivator Recruitment (Lanthascreen)
Lanthascreen assay (Invitrogen) was used for nulear receptor selectivity assay. The kit uses a terbium-labeled anti-GST antibody, a fluorescein-labeled coactivator peptide, and a NR ligand-binding domain that is tagged with glutathione-S-transferase (GST) in a homogenous mix-and-read assay format. […] Following 1 hour incubation in the dark, TR-FRET measurements were made in the Envision. […] The data was analyzed using GraphPad Prism using the sigmoidal curve equation with variable slope to obtain EC50 values.

VDR = target: T6, VDR (Homo sapiens, UniProt P11473); experiment: VDR coactivator recruitment assay
T6 sequence (P11473 127-423 limits assumed): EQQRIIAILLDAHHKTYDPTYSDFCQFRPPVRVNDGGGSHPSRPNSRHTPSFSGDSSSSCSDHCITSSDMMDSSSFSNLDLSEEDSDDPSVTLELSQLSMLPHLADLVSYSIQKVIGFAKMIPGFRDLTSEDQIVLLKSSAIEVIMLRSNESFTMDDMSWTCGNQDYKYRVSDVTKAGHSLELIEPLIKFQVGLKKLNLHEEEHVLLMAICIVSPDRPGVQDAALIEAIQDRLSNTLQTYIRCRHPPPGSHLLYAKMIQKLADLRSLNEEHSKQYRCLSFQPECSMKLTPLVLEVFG

bovine serum albumin [8] = target: T7, bovine serum albumin (Bos taurus, UniProt P02769); experiment: Albumin binding by equilibrium dialysis; format: in vitro ADME; settings: 100 μM BA in 5% bovine serum albumin-saline, pH 7.2
Procedure: The extent of albumin binding was evaluated by equilibrium dialysis at a fixed BA-albumin ratio. BA was dissolved at a concentration of 100 μM in 5% bovine serum albumin-saline solution (pH 7.2) and left to stand for 24 h at 25° C. Two milliliters of this solution was dialyzed in cellulose sacs having a molecular weight cut-off of 12-14,000 against 25 ml of saline solution. The system was equilibrated by mechanical gently shaking for 72 h at 25° C. BA concentrations of the dialyzed solution (corresponding to the free unbound fraction) and of the starting solution were determined with HPLC-ESI-MS/MS in the same conditions of the previous analysis.
The percent of albumin binding was calculate from the initial BA concentration and from the unbound concentration in the dialyzed fraction.

[9] = values from literature; cited from earlier work
bovine serum albumin [10] = target: T7, bovine serum albumin; settings: values from literature; cited from earlier work
[11] = values from literature; cited from earlier work; remark: listed apart in the source
[12] = values from literature; cited from earlier work; remark: listed apart in the source
in vitro [13] = settings: human, HepG2 cells
HepG2 cells [14] = experiment: HepG2 cytotoxicity (ATP decrease); settings: read-out: CYTOTOXICITY ATP decrease EC50; 4 h
Water solubility = settings: 0.1 M HCl
wild-type mice = experiment: Locomotor activity of wild-type mice given Ex-4; format: in vivo, mouse
Source text: To further evaluate the metabolic role of enhanced TGR5 signaling, we assessed the impact of transgenic overexpression of TGR5 in vivo in the context of DIO in mice. TGR5 transgenic mice (TGR5-Tg) were generated by oocyte injection of the bacterial artificial chromosome (BAC) RP23-278N1. […] The absence of weight gain in TGR5-Tg mice, in the wake of an increase in energy expenditure, was explained by a reduction of locomotor activity. Since GLP-1 receptor knockout mice display a marked hyperactivity (Hansotia et al., 2007, J. Clin. Invest. 117, 143-152), we administered the GLP-1 receptor agonist Ex-4 to wild-type mice in order to assess whether the decrease in locomotor activity in TGR5-Tg mice could be linked to GLP-1 secretion.

T7 sequence (P02769 25-607): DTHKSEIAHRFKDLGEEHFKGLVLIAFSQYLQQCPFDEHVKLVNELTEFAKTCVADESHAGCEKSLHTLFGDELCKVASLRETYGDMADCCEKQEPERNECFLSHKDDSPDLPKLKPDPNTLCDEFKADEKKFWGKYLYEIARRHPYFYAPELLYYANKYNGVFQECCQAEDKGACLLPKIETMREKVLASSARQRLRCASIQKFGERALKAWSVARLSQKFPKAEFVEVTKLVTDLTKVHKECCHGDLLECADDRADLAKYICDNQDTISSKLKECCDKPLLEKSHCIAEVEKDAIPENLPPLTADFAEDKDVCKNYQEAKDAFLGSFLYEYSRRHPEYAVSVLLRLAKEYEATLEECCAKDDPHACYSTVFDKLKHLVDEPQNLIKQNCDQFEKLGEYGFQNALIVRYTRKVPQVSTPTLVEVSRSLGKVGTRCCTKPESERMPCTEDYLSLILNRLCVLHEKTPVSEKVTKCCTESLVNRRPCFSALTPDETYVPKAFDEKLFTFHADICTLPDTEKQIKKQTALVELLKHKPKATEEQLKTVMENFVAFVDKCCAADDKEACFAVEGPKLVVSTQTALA

O=c1ccc2ccc(O)cc2o1 [7-Hydroxy Coumarine, reference compound]
half-life (in vitro [1]): 8.5 min

C[C@H](CCC(=O)O)[C@H]1CC[C@H]2[C@@H]3[C@H](O)C[C@@H]4C[C@H](O)CC[C@]4(C)[C@H]3C[C@H](O)[C@]12C [CA, cholic acid]
SV0: maximum bile secretion rate ([2]; id infusion): 64 ± 6 (μL/min)/kg bw | SV0: maximum bile secretion rate ([2]; iv infusion): (78 ± 8) (μL/min)/kg bw | prevention and treatment of metabolic syndrome (diet-induced obese mice): efficiently prevents and treats metabolic syndrome | FXR Activation EC50 (FXR): No activity | LXRα Activation EC50 (LXRα): No activity

C[C@H](CCC(=O)O)[C@H]1CC[C@H]2[C@@H]3[C@H](O)C[C@@H]4C[C@H](O)CC[C@]4(C)[C@H]3CC[C@]12C [CDCA, ChenoDeoxyCholicAcid]
PPARδ Activation EC50 (PPARδ): No activity | fraction unbound at 4 h ([3]; iv): 0.04 | fraction unbound at 4 h ([3]; other: duodenal infusion (id)): 0.03 ± 0.01 | metabolism (7-dehydroxylation) to lithocholic acid (intestinal bacteria): almost completely metabolized | half-life time (intestinal bacteria; human): almost one hour | EC50 (HepG2 cells [4]): > 1000 µM | TGR5 Data Efficacy (TGR5): 100% | CMC […] Na+ [5]: 3.2 mM | STCMC (surface tension at CMC) [5]: 45.5 Dyne/cm | EC50 (HepG2 cells [6]): 890 µM | LogPA- (1-octanol-water partition coefficient, ionized species) [7]: 2.2 | EC50 (CAR): > 250 µM | maximum bile flow rate ([2]; duodenal infusion 1 μmol/kg/min, 1 hour): ≤ 4.8 mL/h/kg | SV0: maximum bile secretion rate ([2]; id infusion): 57 ± 7 (μL/min)/kg bw | SV0: maximum bile secretion rate ([2]; iv infusion): (51 ± 9) (μL/min)/kg bw | VDR Activation EC50 (VDR): No activity | Albumin Binding (bovine serum albumin [8]): 93% | LXRα Activation EC50 (LXRα): No activity

C[C@H](CCC(=O)O)[C@H]1CCC2C3C(CC[C@@]21C)[C@@]1(C)CC[C@@H](O)CC1[C@@H](C)[C@@H]3O (some centres unmarked) [Compound 6MUDCA]
Ws (water solubility, protonated species) [9]: 28* μM | Albumin Binding (bovine serum albumin [10]): 80* % | CMC […] Na+ [11]: 4.2* mM | LogPA- (1-octanol-water partition coefficient, ionized species) [12]: 1.3*

C[C@H](CCC(=O)O)[C@H]1CC[C@H]2[C@@H]3CC[C@@H]4C[C@H](O)CC[C@]4(C)[C@H]3CC[C@]12C [LCA, lithocholic acid]
PPARδ Activation EC50 (PPARδ): No activity | EC50 (HepG2 cells [4]): 105 µM | EC50 (HepG2 cells [6]): 65 µM | CAR Activation EC50 (CAR): No activity | VDR Activation EC50 (VDR): No activity | FXR Activation EC50 (FXR): No activity | EC50 at 4 h (in vitro [13]): 84 µM | LXRα Activation EC50 (LXRα): No activity

C[C@H](CCC(=O)O)[C@H]1CC[C@H]2[C@@H]3[C@@H](O)C[C@@H]4C[C@H](O)CC[C@]4(C)[C@H]3CC[C@]12C [UDCA]
PPARδ Activation EC50 (PPARδ): No activity | EC50 (HepG2 cells [14]): > 1000 µM | CMC […] Na+ [5]: 6.0 mM | STCMC (surface tension at CMC) [5]: 50.5 Dyne/cm | LogPA- (1-octanol-water partition coefficient, ionized species) [7]: 2.2 | EC50 (CAR): > 250 µM | VDR Activation EC50 (VDR): No activity | Albumin Binding (bovine serum albumin [8]): 94% | Ws (water solubility, protonated species) (Water solubility): 7.5 µM | LXRα Activation EC50 (LXRα): No activity

Ex-4: the GLP-1 receptor agonist Ex-4
locomotor activity (wild-type mice): efficiently and dose-dependently reduced locomotor activity
